From patent publication US9073967B2, “High salt-resistance antibacterial peptide and method for producing the same” (NATIONAL TSING HUA UNIVERSITY, priority 2011, dated 2015)
≈ marks a conversion by molar mass, not a printed value. Entries after “also recorded” stand apart in the source; their conditions may differ. Where a SMILES comes first, the peptide text is derived from it. [ ]: non-standard residue; d: D form. 2Nal = N[C@@H](Cc1ccc2ccccc2c1)C(=O)O

Legend:
S. aureus ATCC 25923 [1] = assay: Antibacterial ability in different MgCl2 concentration; type: cell-based
S. aureus ATCC 29213 [2] = assay: Antibacterial ability in different salt (NaCl) concentration, LYM medium
Experimental: (§4) All bacteria strains of above microbes were cultured in LYM medium. […] The NaCl concentrations in LYM were divided into four groups of 50 mM, 100 mM, 200 mM, 300 mM and the microbes were cultured in the four group of LYM and diluted to a 10^4 CFU/ml bacterial solution. Then added 100 μl of the bacterial solution into 96-well culture dish and added different concentration of antibacterial peptides P113, Phe-P113, Nal-P113 or Bip-P113 to evaluate the antibacterial ability in 50 mM, 100 mM, 200 mM, 300 mM concentration of NaCl. (Note: In addition to NaCl, the LYM medium also contains 5.4 mM KCl, 5.6 mM Na2HPO4, 0.5 mM MgSO4, and 1.0 mM sodium citrate. Besides, 0.4 mg of ZnCl2, 2.0 mg of FeCl3.6H2O, 0.1 mg of CuSO4.5H2O, 0.1 mg of MnSO4.H2O, 0.1 mg of Na2B4O7.10H2O, 700 mg of amino acid mixtures without tryptophan (Clontech), and 20 mg of L-Tryptophan were added per liter of medium. Then added moderate amount of glucose, amino acid, and vitamins mixture from the RPM1-1640 Select-Amine Kit)

P. arugenosa ATCC 9027 [3] = assay: Antibacterial ability in different MgCl2 concentration; type: cell-based
E. coli ATCC 25922 [4] = assay: Antibacterial ability in different salt (NaCl) concentration, LYM medium
Experimental: as §4

E. coli ATCC 25922 [5] = assay: Antibacterial ability in different MgCl2 concentration; type: cell-based
P. arugenosa ATCC 27853 [6] = assay: Antibacterial ability in different salt (NaCl) concentration, LYM medium
Experimental: as §4

P. arugenosa ATCC 9027 [7] = assay: as above
Experimental: as §4

S. aureus ATCC 29213 [8] = assay: Antibacterial ability in different MgCl2 concentration; type: cell-based
P. arugenosa ATCC 27853 [9] = assay: as above; type: cell-based
S. aureus ATCC 19636 [10] = assay: Antibacterial ability in different salt (NaCl) concentration, LYM medium
Experimental: as §4

[11] = system: Pseudomonas aeruginosa strains ATTC 9027; assay: Antibacterial activity assay, NCCLS microdilution MIC in MHB; type: cell-based
From the text: (§1) For testing the antibacterial ability of Phe-P113, Nal-P113 and Bip-P113 in different salt concentration, we use Antibacterial activity assay to perform the test. Three bacteria strains are used: Eschericha coli strains (ATCC 25922), Staphylococcus aureus strains (ATCC 25923, 29213 and 19636, methicillin-resistant) and Pseudomonas aeruginosa strains (ATCC 27853 and 9027, ampicillin-resistant).
(§2) The microdilution method of National Committee for Clinical Laboratory Standards (NCCLS) is used to evaluate ‘The minimal inhibition concentration (MIC)’. The minimum concentration that can inhibit 90% or more microbes is the ‘minimal inhibition concentration’.
(§3) In the microdilution method, the 1 μl peptide solution (The concentration is between the range of 5000 μg/ml to 78.1 μg/ml) and the 99 μl inoculums (5×10^5 CFU/ml) is mixed incubated in 96-well culture dish coated with polyethylene under 37° C. for 16 hr. Then evaluated the turbidity in O.D.600 by ELISA plate reader (Thermo Max, Molecular Devices, Sunnyvale, Calif.). Take the Muller-Hinton Broth (MHB) and inoculums suspension with adding peptides as negative and positive control group relatively. The result of MIC is the minimum concentration of peptides that can inhibit the bacteria growth (equal to or more than 90%).

[12] = system: Eschericha coli strains ATCC 25922; assay: as above; type: cell-based
From the text: as §1, §2, §3

[13] = system: Staphylococcus aureus strains ATCC 29213; assay: as above; type: cell-based
From the text: as §1, §2, §3

[14] = system: Pseudomonas aeruginosa strains ATCC 27853; assay: as above; type: cell-based
From the text: as §1, §2, §3

[15] = system: Staphylococcus aureus strains ATCC 25923; assay: as above; type: cell-based
From the text: as §1, §2, §3

[16] = system: Staphylococcus aureus strains ATCC 19636; assay: as above; type: cell-based
From the text: as §1, §2, §3

[17] = system: C. tropicalis ATCC 13803 YLO86
Bacteria strains = assay: Antibacterial ability in different salt concentration, overall statement; conditions: different concentration of NaCl / salt
Experimental: as §4

S. aureus ATCC 19636 [18] = assay: Antibacterial ability in different MgCl2 concentration; type: cell-based
S. aureus ATCC 25923 [19] = assay: Antibacterial ability in different salt (NaCl) concentration, LYM medium
Experimental: as §4

Structure (SMILES): C[C@H](N)C(=O)N[C@@H](CCCCN)C(=O)N[C@@H](CCCNC(=N)N)C(=O)N[C@@H](Cc1ccc2ccccc2c1)C(=O)N[C@@H](Cc1ccc2ccccc2c1)C(=O)NCC(=O)N[C@@H](Cc1ccc(O)cc1)C(=O)N[C@@H](CCCCN)C(=O)N[C@@H](CCCNC(=N)N)C(=O)N[C@@H](CCCCN)C(=O)N[C@@H](Cc1ccccc1)C(=O)N[C@@H](Cc1ccc2ccccc2c1)C(N)=O [Nal-P113] (H-AKR[2Nal][2Nal]GYKRKF[2Nal]-NH2; N-terminus and C-terminus assumed)
- antibacterial ability (MIC) (S. aureus ATCC 25923 [1]; Control group): 1.56 µg/mL
- antibacterial ability (MIC) (S. aureus ATCC 25923 [1]; MgCl2 0.5 mM): 3.12 µg/mL
- antibacterial ability (MIC) (S. aureus ATCC 25923 [1]; MgCl2 1.5 mM): 3.12 µg/mL
- antibacterial ability (MIC) (S. aureus ATCC 25923 [1]; MgCl2 2.5 mM): 3.12 µg/mL
- antibacterial ability (MIC) (S. aureus ATCC 29213 [2]; NaCl 50 mM): 1.56
- antibacterial ability (MIC) (S. aureus ATCC 29213 [2]; NaCl 100 mM): 3.125
- antibacterial ability (MIC) (S. aureus ATCC 29213 [2]; NaCl 200 mM): 6.25
- antibacterial ability (MIC) (S. aureus ATCC 29213 [2]; NaCl 300 mM): 25
- antibacterial ability (MIC) (P. arugenosa ATCC 9027 [3]; Control group): 3.12 µg/mL
- antibacterial ability (MIC) (P. arugenosa ATCC 9027 [3]; MgCl2 0.5 mM): 6.25 µg/mL
- antibacterial ability (MIC) (P. arugenosa ATCC 9027 [3]; MgCl2 1.5 mM): 6.25 µg/mL
- antibacterial ability (MIC) (P. arugenosa ATCC 9027 [3]; MgCl2 2.5 mM): 12.5 µg/mL
- antibacterial ability (MIC) (E. coli ATCC 25922 [4]; NaCl 50 mM): 3.125
- antibacterial ability (MIC) (E. coli ATCC 25922 [4]; NaCl 100 mM): 12.5
- antibacterial ability (MIC) (E. coli ATCC 25922 [4]; NaCl 200 mM): 25
- antibacterial ability (MIC) (E. coli ATCC 25922 [4]; NaCl 300 mM): 50
- antibacterial ability (MIC) (E. coli ATCC 25922 [5]; Control group): 3.12 µg/mL
- antibacterial ability (MIC) (E. coli ATCC 25922 [5]; MgCl2 0.5 mM): 3.12 µg/mL
- antibacterial ability (MIC) (E. coli ATCC 25922 [5]; MgCl2 1.5 mM): 6.25 µg/mL
- antibacterial ability (MIC) (E. coli ATCC 25922 [5]; MgCl2 2.5 mM): 12.5 µg/mL
- antibacterial ability (MIC) (P. arugenosa ATCC 27853 [6]; NaCl 50 mM): 1.56
- antibacterial ability (MIC) (P. arugenosa ATCC 27853 [6]; NaCl 100 mM): 12.5
- antibacterial ability (MIC) (P. arugenosa ATCC 27853 [6]; NaCl 200 mM): 50
- antibacterial ability (MIC) (P. arugenosa ATCC 27853 [6]; NaCl 300 mM): >50
- antibacterial ability (MIC) (P. arugenosa ATCC 9027 [7]; NaCl 50 mM): 6.25
- antibacterial ability (MIC) (P. arugenosa ATCC 9027 [7]; NaCl 100 mM): 50
- antibacterial ability (MIC) (P. arugenosa ATCC 9027 [7]; NaCl 200 mM): 50
- antibacterial ability (MIC) (P. arugenosa ATCC 9027 [7]; NaCl 300 mM): >50
- antibacterial ability (MIC) (S. aureus ATCC 29213 [8]; Control group): 1.56 µg/mL
- antibacterial ability (MIC) (S. aureus ATCC 29213 [8]; MgCl2 0.5 mM): 1.56 µg/mL
- antibacterial ability (MIC) (S. aureus ATCC 29213 [8]; MgCl2 1.5 mM): 1.56 µg/mL
- antibacterial ability (MIC) (S. aureus ATCC 29213 [8]; MgCl2 2.5 mM): 1.56 µg/mL
- antibacterial ability (MIC) (P. arugenosa ATCC 27853 [9]; Control group): 1.56 µg/mL
- antibacterial ability (MIC) (P. arugenosa ATCC 27853 [9]; MgCl2 0.5 mM): 3.12 µg/mL
- antibacterial ability (MIC) (P. arugenosa ATCC 27853 [9]; MgCl2 1.5 mM): 3.21 µg/mL
- antibacterial ability (MIC) (P. arugenosa ATCC 27853 [9]; MgCl2 2.5 mM): 6.25 µg/mL
- antibacterial ability (MIC) (S. aureus ATCC 19636 [10]; NaCl 50 mM): 12.5
- antibacterial ability (MIC) (S. aureus ATCC 19636 [10]; NaCl 100 mM): 25
- antibacterial ability (MIC) (S. aureus ATCC 19636 [10]; NaCl 200 mM): 50
- antibacterial ability (MIC) (S. aureus ATCC 19636 [10]; NaCl 300 mM): 50
- minimal inhibition concentration (MIC) [11]: 50
- minimal inhibition concentration (MIC) [12]: 12.5
- minimal inhibition concentration (MIC) [13]: 6.25
- minimal inhibition concentration (MIC) [14]: 50
- minimal inhibition concentration (MIC) [15]: 6.25
- minimal inhibition concentration (MIC) [16]: 6.25
- MIC [17]: 6.25 µg/mL (≈ 3.58 µM)
- antibacterial ability in different concentration of salt (in words) (Bacteria strains): better than P-113; also recorded: remains their activity of antibacterial
- antibacterial ability (MIC) (S. aureus ATCC 19636 [18]; Control group): 6.25 µg/mL
- antibacterial ability (MIC) (S. aureus ATCC 19636 [18]; MgCl2 0.5 mM): 12.5 µg/mL
- antibacterial ability (MIC) (S. aureus ATCC 19636 [18]; MgCl2 1.5 mM): 12.5 µg/mL
- antibacterial ability (MIC) (S. aureus ATCC 19636 [18]; MgCl2 2.5 mM): 25 µg/mL
- antibacterial ability (MIC) (S. aureus ATCC 25923 [19]; NaCl 50 mM): 1.56
- antibacterial ability (MIC) (S. aureus ATCC 25923 [19]; NaCl 100 mM): 3.125
- antibacterial ability (MIC) (S. aureus ATCC 25923 [19]; NaCl 200 mM): 12.5
- antibacterial ability (MIC) (S. aureus ATCC 25923 [19]; NaCl 300 mM): 50
